Test results published in publication PMC7872319, “Probing Biomolecular Interactions by a Pattern-Forming Peptide–Conjugate Sensor” (Bioconjugate Chemistry, 2020).
“Also recorded” adds a separate entry of the source. Like-named read-outs stand apart in the source and are kept apart here.

Columns and labels:
MinD [1] = assay: Self-organization assay: ssDNA competition with preformed dsDNA-peptide conjugate; assay type: biochemical, Escherichia coli; details: 160 nM common 10 nt and 10 nt peptide conjugates preincubated with 1 μM MinD, competitor added in increasing amounts
Experimental: Supported lipid bilayers (SLBs) were formed by fusion of SUVs in a 96-well plate with a glass bottom (Greiner Bio-One, Kremsmünster, Austria). Plates were cleaned for 30 s (30% power, 0.3 mbar) in a Zepto plasma cleaner (Diener electronic GmbH, Ebhausen, Germany) using oxygen as the process gas. Lipids were prepared as described above, except that sonication was used instead of freeze–thaw cycles to form SUVs. SUVs were added to each reaction chamber at a final concentration of 0.6 mg/mL and incubated for 2 min on a 37 °C warm heating block.
All self-organization assays were performed as previously described.[12],[30] […] For fluorescence imaging, MinD was doped with 30% ATTO655-KCK-MinD.
Imaging was performed on either a commercial Zeiss LSM800 or LSM780 confocal microscope each equipped with a Zeiss C-Apochromat 40X/1.20 water-immersion objective (Carl Zeiss AG, Oberkochen, Germany). ATTO655-KCK-MinD was excited at 640 nm and imaging was performed with a pinhole diameter of 1 Airy unit.
Image analysis was performed in Fiji with the Radial Profile plugin (https://imagej.nih.gov/ij/plugins/radial-profile.html) using custom macro scripts.[31],[32] To discriminate among different patterns and to further characterize them, two approaches were applied. In the first, autocorrelation analysis was performed for each image. A soft windowing function (raised-cosine window, 1 at the center and 0.75 at the edges) was applied to reduce edge effects. Then the autocorrelation image was computed, from which a radial amplitude profile was generated. The position of the first peak in the profile was identified as the correlation distance. Patterns were further analyzed by computing the percentage variation of the correlation intensity along the ring in the autocorrelation image, here defined as correlation dispersion. […] Once separated, the pattern types were further characterized on the basis of additional parameters. Specifically, for the quasi-stationary patterns we used the spot density, derived from the reciprocal of the squared correlation distance, or the correlation distance itself. […]

MinD ATPase [2] = biological target: T1, MinD ATPase (Escherichia coli, UniProt P0AEZ3); details: read-out: IC50 of MinD ATPase activity; unconjugated ssDNA competitor added to MinD with common 10 nt + complementary 10 nt peptide conjugates; two independent assays, each three technical replicates; 95% CI (nM): 12-mer 60.3 to 81.9, 10-mer 393.6 to 772.0, 7-mer 1557.0 to 2730.0
T1 sequence (P0AEZ3 1-270): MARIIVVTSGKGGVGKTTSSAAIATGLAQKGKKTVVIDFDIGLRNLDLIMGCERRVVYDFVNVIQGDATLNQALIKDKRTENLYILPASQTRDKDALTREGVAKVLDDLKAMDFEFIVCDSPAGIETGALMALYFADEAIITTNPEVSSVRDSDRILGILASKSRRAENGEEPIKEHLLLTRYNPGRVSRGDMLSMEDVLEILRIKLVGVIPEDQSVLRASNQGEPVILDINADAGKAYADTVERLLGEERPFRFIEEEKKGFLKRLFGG

MinD [3] = details: 1 μM MinD, 500 nM MinE(13-31)-biotin, 90 nM divalent streptavidin
MinD ATPase [4] = biological target: T1, MinD ATPase; assay: MinD ATPase assay: free biotin competing with MinE(13-31)-biotin for divalent streptavidin; assay type: biochemical; design: His (N); made in house; host or cells: E. coli BL21 (DE3)
MinD ATPase [5] = biological target: T1, MinD ATPase; details: 1 μM MinD, controls: four technical replicates, unconjugated peptide or single unhybridized conjugate

10-mer: competitor ssDNA 5`-AGATGTATTT-3`, 8 overlaps (DNA, backbone not given here)
alteration/abolition of MinD patterns by ssDNA competitor (MinD [1]): abolition of MinD self-organization, but only at higher concentrations in comparison to the 12-mer; also recorded: altered wavelengths of the protein patterns, before eventually abolishing them completely | alteration/abolition of MinD patterns by ssDNA competitor (MinD [1]; listed as 10mer): alteration, and ultimately abolition, of protein patterns | IC50 (MinD ATPase [2]): 551 nM

12-mer: competitor ssDNA 5`-CTAGATGTATAA-3`, 12 overlaps (DNA, backbone not given here)
alteration/abolition of MinD patterns by ssDNA competitor (MinD [1]): alteration, and ultimately abolition, of protein patterns; also recorded: clear transformation from propagating surface waves, through quasi-stationary patterns (reverse hexagons), to the complete abolition of protein patterns | IC50 (MinD ATPase [2]): 70.3 nM

O=C(O)CCCC[C@@H]1SC[C@@H]2NC(=O)N[C@@H]21 [free biotin, biotin]
free biotin concentration for complete abolition of patterns (MinD [3]): approximately 50 nM | IC50 (MinD ATPase [4]): 8.7 nM

N-term-NTANIAKERLQIIVAERRRGSGK(N3)-C-term [MinE(13-31)]
MinD ATPase stimulation (in words) (MinD ATPase [5]): only able to slightly stimulate MinD’s ATPase activity | MinD ATPase stimulation (in words) (MinD ATPase [5]; listed as unconjugated peptide): slightly elevated
